From article PMC7995547, “ω‐Imidazolyl‐alkyl derivatives as new preclinical drug candidates for treating non‐alcoholic steatohepatitis” (Physiological Reports, 2021)
Entries after “also recorded” stand apart in the source; their conditions may differ.

Tested on: male CD/Crl:CD(SD) rats
Experiment: Acute toxicity study, single peroral application, 14‐day observation
Type: in vivo
Details: for Ataxia / Chromodacryorrhea / Dyspnoea / Inhibition of body weight gain / Mean body weight gain, After 7 d / Mean body weight, After 7 d / Mortality within 6 h / Mortality within 24 h / Necropsy findings / Piloerection / Ptosis / Reduced motility / Reduced muscle tone / Mean body weight gain, End / Mean body weight, End / Mean body weight, Start / Mortality within 7 d / Mortality within 14 d: p.o., males, n = 5; for Mean body weight gain, End / Mean body weight, End: 14‐day observation; for Mean body weight, Start: before administration; for Premature deaths in the acute toxicity study: rat, in vivo
Procedure: In total, 90 male CD®/Crl:CD(SD) rats from Charles River Laboratories, Deutschland GmbH, were used after randomization. Five rats were selected for each concentration of the corresponding experimental substance. […] In addition, a control group was formed with five rats receiving only the HPMC gel.
Feeding was stopped approximately 16 h before the start of test substance application, whereas tap water continued to be available ad libitum. Granulated structural wood was used as bedding material in the cages; the material was changed and the cages were cleaned twice a week. […] The rooms were illuminated (approximately 150 lux from a ceiling height of approximately 1.50 m) and darkened for 12 h in turns.
Each animal was kept under observation, so that any behavior deviating from the norm could be systematically recorded. Observations were made before the peroral application of the respective active substance, immediately after, and 5, 15, 30, and 60 min and 3, 6, and 24 h after the start of application. […] We focused on the changes in the skin and fur, the eyes and mucous membranes, respiration, circulation, the autonomous and central nervous systems, somatomotor activity, and behavior patterns. They were also observed for possible tremors, convulsions, salivation, diarrhea, lethargy, sleep, and coma. Mortality checks were performed at least once a day to minimize the loss of animals during the study. The time of death was recorded as accurately as possible. Individual body weights were recorded before the administration of experimental substances and, subsequently, at weekly intervals, until the end of the study and at death. Weight changes were calculated when survival exceeded 1 day.
At the end of the experiments, all surviving animals were sacrificed, dissected, and examined macroscopically. All notable pathological changes were recorded. A microscopic examination of all organs showing obvious lesions was performed on animals that survived for 24 h or longer. Autopsy and macroscopic inspection of prematurely deceased animals were performed as soon as possible after death.

OCCCCCCCCCCCCn1ccnc1 [I‐ol, 12‐imidazolyl‐1‐dodecanol]
Ataxia (10 mg/kg b.w.): None
Chromodacryorrhea (10 mg/kg b.w.): None
Dyspnoea (10 mg/kg b.w.): None
Inhibition of body weight gain (10 mg/kg b.w.): None
Mean body weight gain, After 7 d (10 mg/kg b.w.): +17.0%
Mean body weight, After 7 d (10 mg/kg b.w.): 259.2 g
Mortality within 6 h (10 mg/kg b.w.): 0
Mortality within 24 h (10 mg/kg b.w.): 0
Necropsy findings (10 mg/kg b.w.): None
Piloerection (10 mg/kg b.w.): None
Ptosis (10 mg/kg b.w.): None
Reduced motility (10 mg/kg b.w.): None
Reduced muscle tone (10 mg/kg b.w.): None
Mean body weight gain, End (10 mg/kg b.w.): +30.0%
Mean body weight, End (10 mg/kg b.w.): 288.0 g
Mean body weight, Start (10 mg/kg b.w.): 221.6 g
Mortality within 7 d (10 mg/kg bw): 0
Mortality within 14 d (10 mg/kg bw): 0
Ataxia (50 mg/kg b.w.): None
Chromodacryorrhea (50 mg/kg b.w.): None
Dyspnoea (50 mg/kg b.w.): None
Inhibition of body weight gain (50 mg/kg b.w.): None
Mean body weight gain, After 7 d (50 mg/kg b.w.): +22.2%
Mean body weight, After 7 d (50 mg/kg b.w.): 278.4 g
Mortality within 6 h (50 mg/kg b.w.): 0
Mortality within 24 h (50 mg/kg b.w.): 0
Necropsy findings (50 mg/kg b.w.): None
Piloerection (50 mg/kg b.w.): None
Ptosis (50 mg/kg b.w.): None
Reduced motility (50 mg/kg b.w.): None
Reduced muscle tone (50 mg/kg b.w.): None
Mean body weight gain, End (50 mg/kg b.w.): +36.3%
Mean body weight, End (50 mg/kg b.w.): 310.4 g
Mean body weight, Start (50 mg/kg b.w.): 227.8 g
Mortality within 7 d (50 mg/kg bw): 0
Mortality within 14 d (50 mg/kg bw): 0
Ataxia (100 mg/kg b.w.): None
Chromodacryorrhea (100 mg/kg b.w.): None
Dyspnoea (100 mg/kg b.w.): None
Inhibition of body weight gain (100 mg/kg b.w.): None
Mean body weight gain, After 7 d (100 mg/kg b.w.): +18.5%
Mean body weight, After 7 d (100 mg/kg b.w.): 272.6 g
Mortality within 6 h (100 mg/kg b.w.): 0
Mortality within 24 h (100 mg/kg b.w.): 0
Necropsy findings (100 mg/kg b.w.): None
Piloerection (100 mg/kg b.w.): None
Ptosis (100 mg/kg b.w.): None
Reduced motility (100 mg/kg b.w.): None
Reduced muscle tone (100 mg/kg b.w.): None
Mean body weight gain, End (100 mg/kg b.w.): +33.0%
Mean body weight, End (100 mg/kg b.w.): 305.8 g
Mean body weight, Start (100 mg/kg b.w.): 230.0 g
Mortality within 7 d (100 mg/kg bw): 0
Mortality within 14 d (100 mg/kg bw): 0
Ataxia (250 mg/kg b.w.): None
Chromodacryorrhea (250 mg/kg b.w.): None
Dyspnoea (250 mg/kg b.w.): None
Inhibition of body weight gain (250 mg/kg b.w.): None
Mean body weight gain, After 7 d (250 mg/kg b.w.): +19.6%
Mean body weight, After 7 d (250 mg/kg b.w.): 266.8 g
Mortality within 6 h (250 mg/kg b.w.): 0
Mortality within 24 h (250 mg/kg b.w.): 0
Necropsy findings (250 mg/kg b.w.): None
Piloerection (250 mg/kg b.w.): None
Ptosis (250 mg/kg b.w.): None
Reduced motility (250 mg/kg b.w.): None
Reduced muscle tone (250 mg/kg b.w.): None
Mean body weight gain, End (250 mg/kg b.w.): +34.2%
Mean body weight, End (250 mg/kg b.w.): 299.2 g
Mean body weight, Start (250 mg/kg b.w.): 223.0 g
Toxic signs (250 mg/kg bw): None
Mortality within 7 d (250 mg/kg bw): 0
Mortality within 14 d (250 mg/kg bw): 0
Ataxia (500 mg/kg b.w.): None
Chromodacryorrhea (500 mg/kg b.w.): None +
Dyspnoea (500 mg/kg b.w.): None
Inhibition of body weight gain (500 mg/kg b.w.): None
Mean body weight gain, After 7 d (500 mg/kg b.w.): +29.0%
Mean body weight, After 7 d (500 mg/kg b.w.): 294.2 g
Mortality within 6 h (500 mg/kg b.w.): 0
Mortality within 24 h (500 mg/kg b.w.): 0
Necropsy findings (500 mg/kg b.w.): None
Ptosis (500 mg/kg b.w.): None
Reduced motility (500 mg/kg b.w.): None
Reduced muscle tone (500 mg/kg b.w.): None
Mean body weight gain, End (500 mg/kg b.w.): +46.6%
Mean body weight, End (500 mg/kg b.w.): 334.2 g
Mean body weight, Start (500 mg/kg b.w.): 228.0 g
Toxic signs (500 mg/kg bw): None
Mortality within 7 d (500 mg/kg bw): 0
Mortality within 14 d (500 mg/kg bw): 0
Chromodacryorrhea (1000 mg/kg b.w.): None
Inhibition of body weight gain (1000 mg/kg b.w.): None
Mean body weight gain, After 7 d (1000 mg/kg b.w.): +22.4%
Mean body weight, After 7 d (1000 mg/kg b.w.): 271.2 g
Mortality within 6 h (1000 mg/kg b.w.): 0
Mortality within 24 h (1000 mg/kg b.w.): 0
Necropsy findings (1000 mg/kg b.w.): None
Piloerection (1000 mg/kg b.w.): None
Ptosis (1000 mg/kg b.w.): None
Mean body weight gain, End (1000 mg/kg b.w.): +36.6%
Mean body weight, End (1000 mg/kg b.w.): 302.6 g
Mean body weight, Start (1000 mg/kg b.w.): 221.6 g
Toxic signs (1000 mg/kg bw): reduced motility was observed, with reduced muscle tone, ataxia, and dyspnea; also recorded: Reduced motility and muscle tone, ataxia, dyspnoea
Mortality within 7 d (1000 mg/kg bw): 0
Mortality within 14 d (1000 mg/kg bw): 0
Macroscopic necropsy findings (all doses): None
Premature deaths in the acute toxicity study (male, CD/Crl:CD(SD), 14 days): None of the 30 rats died
Premature deaths in the acute toxicity study: did not lead to any death
Dose up to which no acute toxicity was shown (rats, single p.o. dose): 1000 mg/kg b.w.
Lowest lethal dose (rats, single p.o. dose): >1000 mg/kg bw
No Observed Adverse Effect Level (rats, single p.o. dose): 500 mg/kg bw
LD50(14 d) (rats, single p.o. dose, 14 days): >1000 mg/kg bw
